# Values of other authors, collected in patent US4086220A, “Fragments of secretin” (G. D. Searle & Co., priority 1976, dated 1978).
# Settings: on a molar basis; parent molecule = intact secretin
substance,measurement,value
"Amino acid fragments of the molecule from position 1 to 14: Secretin fragment, positions 1 to 14 (containing the helical portion), reported in literature (Rayford et al.) (HSDGTFTSELSRLR; Secretin; UniProt P09683 28-41, looked up, fragment)",lipolytic activity relative to that of the parent molecule,about 0.5%
